Six compounds from ChEMBL document CHEMBL2440050 (ACS Med Chem Lett, 2013) can be followed below.

As a reminder, the IC50 is the point on the concentration scale where inhibition reaches its midpoint. The low end stands for greater potency, the high end for weaker potency.

Molecules are shown by their SMILES.

Experiment [1] deals with L1210. Put plainly: Growth inhibition of mouse L1210 cells after 72 hrs by phosphatase assay. The conditions noted are these: L1210, 72 h. The format is functional, cell-based.
The test system of experiment [2] is HCT-116/VM46. The experiment can be described thus: Growth inhibition of vinblastine-resistant human HCT116/VM46 cells overexpressing P-gp after 72 hrs by phosphatase assay. The format is functional, cell-based. The conditions noted are these: HCT-116/VM46, 72 h.
The test system of experiment [3] is HCT-116. The experiment can be described thus: Growth inhibition of vinblastine-sensitive human HCT116 cells after 72 hrs by phosphatase assay. The format is functional, cell-based. The note with it: HCT-116, 72 h.
For experiment [4], the system named is HCT-116/VM46. Put plainly: Ratio of vinblastine IC50 to compound IC50 for vinblastine-resistant human HCT116/VM46 cells overexpressing P-gp by phosphatase assay. In kind it is functional.
In experiment [5] the test system is HCT-116. Put plainly: Ratio of vinblastine IC50 to compound IC50 for vinblastine-sensitive human HCT116 cells by phosphatase assay. In kind it is functional.
Experiment [6] deals with HCT-116. The experiment can be described thus: Ratio of IC50 for vinblastine-resistant human HCT116/VM46 cells overexpressing P-gp to IC50 for vinblastine-sensitive human HCT116 cells by phosphatase assay. The format is functional.
Experiment [7] concerns L1210. The experiment can be described thus: Ratio of vinblastine IC50 to compound IC50 for mouse L1210 cells by phosphatase assay. In kind it is functional.

In the case of `CC[C@]1(NC(=O)N2CCSCC2)C[C@H]2CN(CCc3c([nH]c4ccccc34)[C@@](C(=O)OC)(c3cc4c(cc3OC)N(C)[C@H]3[C@@](O)(C(=O)OC)[C@H](OC(C)=O)[C@]5(CC)C=CCN6CC[C@]43[C@@H]65)C2)C1`, the IC50 was 2.1 nM in the experiment on L1210 [1], 50 nM with HCT-116/VM46 [2] and 0.88 nM in the experiment with HCT-116 [3].

Take `CC[C@]1(NC(=O)N2CCC(c3ccccc3)CC2)C[C@H]2CN(CCc3c([nH]c4ccccc34)[C@@](C(=O)OC)(c3cc4c(cc3OC)N(C)[C@H]3[C@@](O)(C(=O)OC)[C@H](OC(C)=O)[C@]5(CC)C=CCN6CC[C@]43[C@@H]65)C2)C1`: the IC50 was 5.3 nM in the experiment on L1210 [1], 55 nM with HCT-116/VM46 [2] and 3.1 nM in the experiment with HCT-116 [3].

`CC[C@]1(NC(N)=O)C[C@H]2CN(CCc3c([nH]c4ccccc34)[C@@](C(=O)OC)(c3cc4c(cc3OC)N(C)[C@H]3[C@@](O)(C(=O)OC)[C@H](OC(C)=O)[C@]5(CC)C=CCN6CC[C@]43[C@@H]65)C2)C1` came in with an IC50 in the experiment on L1210 [1] of 40 nM.

Regarding `CC[C@]1(NC(=O)N2Cc3ccc(OC)cc3C2)C[C@H]2CN(CCc3c([nH]c4ccccc34)[C@@](C(=O)OC)(c3cc4c(cc3OC)N(C)[C@H]3[C@@](O)(C(=O)OC)[C@H](OC(C)=O)[C@]5(CC)C=CCN6CC[C@]43[C@@H]65)C2)C1`, the IC50 was determined as 0.61 nM in the experiment on L1210 [1], 8.7 nM with HCT-116/VM46 [2] and 0.69 nM with HCT-116 [3]. Also, the “Ratio IC50” value in the experiment with HCT-116/VM46 [4] is on record as 80; in the experiment on HCT-116 [5] it was 10; in the experiment with HCT-116 [6], 13; with L1210 [7], 10.

As to `CC[C@]1(NC(=O)N2CCCCC2)C[C@H]2CN(CCc3c([nH]c4ccccc34)[C@@](C(=O)OC)(c3cc4c(cc3OC)N(C)[C@H]3[C@@](O)(C(=O)OC)[C@H](OC(C)=O)[C@]5(CC)C=CCN6CC[C@]43[C@@H]65)C2)C1`, the midpoint of inhibition in the experiment with L1210 [1], the IC50, lay at 5.5 nM.

For `CC[C@]1(NC(=O)N2CCN(C)CC2)C[C@H]2CN(CCc3c([nH]c4ccccc34)[C@@](C(=O)OC)(c3cc4c(cc3OC)N(C)[C@H]3[C@@](O)(C(=O)OC)[C@H](OC(C)=O)[C@]5(CC)C=CCN6CC[C@]43[C@@H]65)C2)C1`, the IC50 in the experiment with L1210 [1] was found to be 7.7 nM; with HCT-116/VM46 [2], 710 nM; in the experiment on HCT-116 [3] it was 3.4 nM.
